According to a compilation of properties of binary mixtures (doi:10.1016/j.molliq.2017.03.036):

Assay: xn = mol fraction of the nth substance listed
Settings: 101 kPa

CN(CCO)CCO + CC(=O)[O-].CC[n+]1ccn(C)c1
x2 = 0
Settings | electrical conductivity [S/m] | viscosity [mPa·s]
288.15 K | 0.0002 | 137.6
293.15 K | 0.0003 | 101.2
298.15 K | 0.0004 | 74.8
303.15 K | 0.0005 | 57.2
308.15 K | 0.0007 | 43
313.15 K | 0.0009 | 34.1
318.15 K | 0.0011 | 26.1
323.15 K | 0.0014 | 21.6
333.15 K | 0.0024 | 14.19
348.15 K | 0.0046 | 8.13
353.15 K | 0.0056 | 7.09

CC(=O)[O-].CC[n+]1ccn(C)c1 + CN(CCO)CCO
Settings | electrical conductivity [S/m] | viscosity [mPa·s]
288.15 K, x1 = 0.1002 | 0.01 | 144.1
288.15 K, x1 = 0.2997 | 0.048 | 155.8
288.15 K, x1 = 0.4001 | 0.059 | 163
288.15 K, x1 = 0.5998 | 0.075 | 193
288.15 K, x1 = 0.7003 | 0.087 | 203
288.15 K, x1 = 0.7998 | 0.103 | 217
288.15 K, x1 = 0.8999 | 0.124 | 236
288.15 K, x1 = 1 | 0.151 | 288
293.15 K, x1 = 0.1002 | 0.014 | 107.2
293.15 K, x1 = 0.2002 | 0.044 | 112.8
293.15 K, x1 = 0.2997 | 0.059 | 118.3
293.15 K, x1 = 0.4995 | 0.085 | 128.7
293.15 K, x1 = 0.5998 | 0.099 | 140.6
293.15 K, x1 = 0.7003 | 0.116 | 147.3
293.15 K, x1 = 0.7998 | 0.138 | 154.8
293.15 K, x1 = 0.8999 | 0.169 | 170
293.15 K, x1 = 1 | 0.201 | 197
298.15 K, x1 = 0.1002 | 0.019 | 80.3
298.15 K, x1 = 0.2002 | 0.054 | 85.1
298.15 K, x1 = 0.2997 | 0.073 | 88.7
298.15 K, x1 = 0.4001 | 0.089 | 93.2
298.15 K, x1 = 0.5998 | 0.13 | 106.5
298.15 K, x1 = 0.7003 | 0.152 | 110.8
298.15 K, x1 = 0.7998 | 0.184 | 114.1
298.15 K, x1 = 0.8999 | 0.227 | 127.2
298.15 K, x1 = 1 | 0.278 | 140
303.15 K, x1 = 0.1002 | 0.025 | 60.8
303.15 K, x1 = 0.2997 | 0.091 | 68.6
303.15 K, x1 = 0.4001 | 0.115 | 71.9
303.15 K, x1 = 0.4995 | 0.148 | 75.7
303.15 K, x1 = 0.7003 | 0.204 | 83.8
303.15 K, x1 = 0.7998 | 0.242 | 86.6
303.15 K, x1 = 0.8999 | 0.295 | 95.8
308.15 K, x1 = 0.1002 | 0.032 | 47.2
308.15 K, x1 = 0.2002 | 0.079 | 50.7
308.15 K, x1 = 0.2997 | 0.11 | 53.3
308.15 K, x1 = 0.4001 | 0.143 | 56.1
308.15 K, x1 = 0.4995 | 0.185 | 59.9
308.15 K, x1 = 0.5998 | 0.217 | 64.3
308.15 K, x1 = 0.7003 | 0.271 | 65.4
308.15 K, x1 = 0.7998 | 0.315 | 66.8
308.15 K, x1 = 1 | 0.461 | 78.3
313.15 K, x1 = 0.1002 | 0.04 | 37.2
313.15 K, x1 = 0.2002 | 0.093 | 40.3
313.15 K, x1 = 0.2997 | 0.134 | 42.9
313.15 K, x1 = 0.4001 | 0.175 | 45
313.15 K, x1 = 0.5998 | 0.273 | 51.7
313.15 K, x1 = 0.8999 | 0.486 | 58.1
313.15 K, x1 = 1 | 0.585 | 60.4
318.15 K, x1 = 0.2002 | 0.112 | 32
318.15 K, x1 = 0.2997 | 0.163 | 34.3
318.15 K, x1 = 0.4001 | 0.215 | 36.4
318.15 K, x1 = 0.4995 | 0.28 | 39.7
318.15 K, x1 = 0.5998 | 0.342 | 41.3
318.15 K, x1 = 0.7998 | 0.505 | 43.7
323.15 K, x1 = 0.2002 | 0.132 | 26.1
323.15 K, x1 = 0.2997 | 0.194 | 27.3
323.15 K, x1 = 0.4001 | 0.259 | 29.8
323.15 K, x1 = 0.4995 | 0.344 | 32.7
323.15 K, x1 = 0.5998 | 0.423 | 33.9
323.15 K, x1 = 0.7003 | 0.519 | 35.1
323.15 K, x1 = 0.7998 | 0.624 | 35.9
323.15 K, x1 = 0.8999 | 0.736 | 38.3
328.15 K, x1 = 0.2002 | 0.157 | 21.4
328.15 K, x1 = 0.2997 | 0.23 | 22.8
328.15 K, x1 = 0.4001 | 0.311 | 25
328.15 K, x1 = 0.7003 | 0.628 | 28.7
328.15 K, x1 = 0.7998 | 0.763 | 29.4
328.15 K, x1 = 0.8999 | 0.886 | 30.8
328.15 K, x1 = 1 | 1.06 | 31.2
333.15 K, x1 = 0.1002 | 0.09 | 15.76
333.15 K, x1 = 0.2002 | 0.184 | 17.9
333.15 K, x1 = 0.2997 | 0.273 | 19.4
333.15 K, x1 = 0.4001 | 0.371 | 20.6
333.15 K, x1 = 0.4995 | 0.495 | 22
333.15 K, x1 = 0.5998 | 0.628 | 23
333.15 K, x1 = 0.7003 | 0.755 | 23.8
333.15 K, x1 = 0.7998 | 0.909 | 24.5
338.15 K, x1 = 0.1002 | 0.108 | 13
338.15 K, x1 = 0.2002 | 0.215 | 14.46
338.15 K, x1 = 0.2997 | 0.322 | 16.9
338.15 K, x1 = 0.4001 | 0.437 | 17.3
338.15 K, x1 = 0.4995 | 0.583 | 18.7
338.15 K, x1 = 0.5998 | 0.742 | 19.3
338.15 K, x1 = 0.7003 | 0.896 | 19.9
338.15 K, x1 = 0.7998 | 1.08 | 20.5
338.15 K, x1 = 0.8999 | 1.25 | 21.1
338.15 K, x1 = 1 | 1.47 | 21.8
343.15 K, x1 = 0.1002 | 0.126 | 10.85
343.15 K, x1 = 0.2002 | 0.249 | 12.19
343.15 K, x1 = 0.2997 | 0.377 | 14.5
343.15 K, x1 = 0.4995 | 0.684 | 16.1
343.15 K, x1 = 0.5998 | 0.882 | 16.6
343.15 K, x1 = 0.7003 | 1.05 | 17.3
343.15 K, x1 = 0.7998 | 1.26 | 17.7
343.15 K, x1 = 0.8999 | 1.46 | 18.2
343.15 K, x1 = 1 | 1.71 | 18.8
348.15 K, x1 = 0.1002 | 0.148 | 9.17
348.15 K, x1 = 0.2002 | 0.287 | 10.36
348.15 K, x1 = 0.2997 | 0.441 | 12.49
348.15 K, x1 = 0.4001 | 0.605 | 12.74
348.15 K, x1 = 0.5998 | 1.04 | 14.22
348.15 K, x1 = 0.7003 | 1.22 | 14.67
348.15 K, x1 = 0.7998 | 1.46 | 15.22
348.15 K, x1 = 0.8999 | 1.68 | 15.69
348.15 K, x1 = 1 | 1.96 | 16.01
353.15 K, x1 = 0.1002 | 0.172 | 8.38
353.15 K, x1 = 0.2997 | 0.511 | 10.86
353.15 K, x1 = 0.4001 | 0.7 | 11.03
353.15 K, x1 = 0.4995 | 0.919 | 12.24
353.15 K, x1 = 0.7003 | 1.42 | 13.06
353.15 K, x1 = 0.8999 | 1.93 | 13.8
353.15 K, x1 = 1 | 2.22 | 14.07
